Experimental data taken from patent US20130096021A1, “RECURRENT GENE FUSIONS IN BREAST CANCER” (priority 2011, published 2013).

Experiments:
[1] = tested on: Notch signaling pathway; test: Notch reporter luciferase assay after DAPT treatment; type: cell-based, human; details: lysates 24 hours after DAPT
Description: Breast cancer cells were seeded into 24-well dishes in triplicate and allowed to attach overnight. Cells were then infected with a Notch-reporter construct Lenti-RBPJ-firefly luciferase together with a Lenti-CMV-Renilla luciferase control (SABiosciences/QIAGEN). The two lentiviral stocks were mixed at a ratio of 50 Notch reporters to 1 CMV control and a single mixture was used to infect all recipient cell lines at a MOI of 100. Following incubation for 48 hours, cell lysates were prepared and measured for Notch activity using Promega Dual Luciferase reagents and Passive Lysis Buffer. Firefly luciferase levels were normalized using corresponding Renilla luciferase levels for each cell line. To confirm that Notch pathways are activated in the index cell lines through Notch gene rearrangements, the activated NOTCH1 and NOTCH2 alleles were cloned from HCC1599, HCC2218, and HCC1187 into a pcDNA3.1 vector. These expression constructs, pcDNA3.1-1599-NOTCH1, pcDNA3.1-2218-NOTCH1, and pcDNA3.1-1187-NOTCH2 and positive control NOTCH1-NICD, were individually transfected into 293T cells along with the pGL4-RBPJ-4X reporter plasmid and pTKRenilla luciferase control plasmid. Cells were harvested for luciferase activity assays 24 hours after transfection and assayed as above.
Notch fusion alleles provide a target for therapeutic intervention. The three characterized Notch fusions represent two functional classes. The first class, exemplified by the HCC2218 and HCC1599 fusions, produces a protein similar to that produced by the ADAM17/TACE catalyzed S2 cleavage, which occurs during ligand activation of the Notch pathway. The second class, exemplified by the HCC1187 fusion, produces a protein similar to the NICD produced after cleavage at S3 by γ-secretase. […] Each of the three cell lines was treated with the γ-secretase inhibitor DAPT 31, and luciferase activity was measured in cell lysates 24 hours later. […] A panel of six breast cell lines were treated with DAPT at 0, 0.3, 1, and 3 μM, and cell proliferation was measured using a WST-1 assay over a six day time course.

[2] = tested on: γ-secretase-cleaved NOTCH1 (NICD); test: Western blot of NICD levels after DAPT treatment; type: cell-based, human
Description: For MAST2 fusion protein detection, cell pellets were sonicated in NP40 lysis buffer (50 mM Tris-HCl, 1% NP40, pH 7.4, Sigma), complete protease inhibitor mixture (Roche) and phosphatase inhibitor (EMD bioscience) Immunoblot analysis for MAST2 was carried out using MAST2 antibody from Novus Biologicals. Human β-actin antibody (Sigma) was used as a loading control. For NOTCH1 protein detection, cells were lysed in RIPA buffer containing protease inhibitor cocktail (Pierce). Proteins were separated by SDS-PAGE, transferred to nitrocellulose membranes and probed with antibodies recognizing total NOTCH1 (Cell Signaling), γ-secretase-cleaved NOTCH1 (NICD, Cell Signaling), or beta-actin (Santa Cruz). The signal was detected by chemiluminescence using Immun-Star Western C reagents (Bio-Rad).
Notch fusion alleles provide a target for therapeutic intervention. The three characterized Notch fusions represent two functional classes. […] Each of the three cell lines was treated with the γ-secretase inhibitor DAPT 31, and luciferase activity was measured in cell lysates 24 hours later. […] A panel of six breast cell lines were treated with DAPT at 0, 0.3, 1, and 3 μM, and cell proliferation was measured using a WST-1 assay over a six day time course.

[3] = tested on: HCC1187 cells; test: WST-1 cell proliferation assay with DAPT; type: cell-based, human; details: DAPT 0.3, 1, and 3 μM, six day time course
Description: (§1) For cell proliferation assays, cells were seeded into 96-well plates in triplicate and allowed to attach overnight before drug treatment. The γ-secretase inhibitor DAPT (EMD Biosciences) was added to the cultures the next day at concentrations of 0, 0.3, 1, and 3 μM. Relative cell numbers were measured by WST-1 assays at indicated time points following the manufacturer's instructions (Roche).
(§2) Notch fusion alleles provide a target for therapeutic intervention. The three characterized Notch fusions represent two functional classes. The first class, exemplified by the HCC2218 and HCC1599 fusions, produces a protein similar to that produced by the ADAM17/TACE catalyzed S2 cleavage, which occurs during ligand activation of the Notch pathway. The second class, exemplified by the HCC1187 fusion, produces a protein similar to the NICD produced after cleavage at S3 by γ-secretase. The first class requires cleavage at S3 site by γ-secretase to release NICD, and thus would be expected to be sensitive to γ-secretase inhibitors (GSIs). The second class would be unaffected by GSIs, as the fusion generates an ORF similar to NICD. To test this, stable Notch reporter cell lines were established from each of the three Notch fusion positive carcinoma lines by infection with a lentivirus carrying the Notch responsive promoter driving firefly luciferase. Each of the three cell lines was treated with the γ-secretase inhibitor DAPT 31, and luciferase activity was measured in cell lysates 24 hours later. […] A panel of six breast cell lines were treated with DAPT at 0, 0.3, 1, and 3 μM, and cell proliferation was measured using a WST-1 assay over a six day time course.

[4] = tested on: HCC1599 cells; test: WST-1 cell proliferation assay with DAPT; type: cell-based, human; details: DAPT 0.3, 1, and 3 μM, six day time course
Description: as §1, §2

[5] = tested on: HCC2218 cells; test: WST-1 cell proliferation assay with DAPT; type: cell-based, human; details: DAPT 0.3, 1, and 3 μM, six day time course
Description: as §1, §2

[6] = tested on: other breast cell lines not expressing Notch fusion alleles; test: WST-1 cell proliferation assay with DAPT; type: cell-based, human; details: DAPT 0.3, 1, and 3 μM, six day time course
Description: as §1, §2

[7] = tested on: Notch target genes CCND1, MYC, and HEY1; test: Expression of Notch target genes after DAPT treatment; type: cell-based, human; details: 24-hour time course, cell lines with γ-secretase dependent Notch fusions
[8] = tested on: HCC1599 xenograft
Description: Four week-old female SCID C.B17 mice were procured from a breeding colony at University of Michigan. […] Mice were anesthetized using a cocktail of xylazine (80 mg/kg IP) and ketamine (10 mg/kg IP) for chemical restraint. MAST2 shRNA or scrambled shRNA knockdown MDA-MB-468 breast cancer cells (4 million) or NOTCH1 fusion allele positive HCC1599 breast cancer cell line (5 million) were resuspended in 100 ul of 1×PBA with 20% Matrigel (BD Biosciences) and implanted into right and left abdominal-inguinal mammary fat. Ten mice were included in each group. Two weeks after tumor implantation, HCC1599 xenograted mice were treated with γ-secretase inhibitor (DAPT) dissolved in 5% ethanol in corn oil (IP). Mice in control group also received 5% ethanol in corn oil as vehicle control. Tumor growth was recorded weekly by using digital calipers and tumor volumes were calculated using the formula (R/6) (L×W2), where L=length of tumor and W=width.
This was tested further by establishing a xenograft tumor model of HCC1599 in immunodeficient mice.

C[C@H](NC(=O)Cc1cc(F)cc(F)c1)C(=O)N[C@H](C(=O)OC(C)(C)C)c1ccccc1 [DAPT, N—[N-(3,5-difluorophenacetyl)-L-alanyl]-S-phenylglycine t-butyl ester]
Notch reporter activity (luciferase) ([1]; HCC1187 stable Notch reporter line): only slightly diminished | Notch reporter activity (luciferase) ([1]; HCC1599 stable Notch reporter line): dramatic reduction | Notch reporter activity (luciferase) ([1]; HCC2218 stable Notch reporter line): dramatic reduction | NICD levels (Western blot) ([2]; HCC1599 cells after DAPT treatment): nearly complete elimination | NICD levels (Western blot) ([2]; HCC2218 cells after DAPT treatment): dramatically reduced | cell proliferation [3]: no reduction in proliferation | cell proliferation [4]: dramatic reduction in proliferation | cell proliferation [5]: significant reduction in proliferation | cell proliferation [6]: no reduction in proliferation | Notch target gene expression [7]: repressed | tumor volume ([8]; HCC1599 xenograft in immunodeficient mice, DAPT IP, versus untreated controls): significantly reduced | overall body weight ([8]; mouse, in vivo): No effect
